Measured values published in patent US12474342B2, “Methods for treating cancer and the use of biomarkers as a predictor of clinical sensitivity to therapies” (CELGENE CORPORATION, priority 2016, dated 2025).
Read-outs that look alike come from different tables or passages of the source.

Experiments:
OCI-AML2 cells [1] = assay: Apoptosis (caspase 3/7 activation), OCI-AML2; format: cell-based, human; conditions: for EC50: Homo sapiens, read-out: Compound D-induced Apoptosis EC50
HL-60 cells = assay: Apoptosis (caspase 3/7 activation), HL-60; format: cell-based, human; conditions: for EC50: Homo sapiens, read-out: Compound D-induced Apoptosis EC50
MOLM-13 cells = assay: Anti-proliferation CTG assay, MOLM-13; format: cell-based, human
Procedure: (§1) A plethora of AML cell lines were treated with serial dilutions of Compound D. IC50 value of the anti-proliferation effect of Compound D (as determined in 72-hour CTG assays) in each cell line is summarized in Table 1.
The effect of overexpression of GSPT1 on the anti-proliferative effect of Compound D and Compound E was determined in human histiocytic lymphoma cell line U937 and human leukemia cell line MOLM13. Treatment compounds (e.g., Compound D or Compound E) were titrated from 0.001 μM to 10 μM. Cell proliferation was measured by CellTiter-Glo cell viability assay at 48 hours after treatment. […] However, when exogenous GSPT1 was overproduced via the EF1α promoter, as shown in FIGS. 5A-5D, the anti-proliferative effect of Compound D and Compound E reduced.

ATF3 = ATF3 protein induction, western blot, HNT-34; format: cell-based, human; conditions: HNT-34, 10 nM Compound D
Procedure: The time course of GSPT1 degradation was monitored by western blot analysis of HNT-34 AML cells and normal PBMCs (FIGS. 32A-32D) following incubation with Compound D (1, 10, and 100 nM).

GSPT1 = GSPT1 (Homo sapiens, UniProt P15170+Q96SW2); assay: GSPT1 protein reduction, western analysis, HNT-34; format: cell-based; design: reduction in GSPT1 protein level was evaluated in human normal PBMCs; endogenous in cells; host or cells: primary PBMCs from normal donors (ID 4328, 4379) and AML patients (ID 11SH, 09P6); conditions: HNT-34, 10 nM Compound D
GSPT1, sequence (P15170 1-637 isoform P15170-3): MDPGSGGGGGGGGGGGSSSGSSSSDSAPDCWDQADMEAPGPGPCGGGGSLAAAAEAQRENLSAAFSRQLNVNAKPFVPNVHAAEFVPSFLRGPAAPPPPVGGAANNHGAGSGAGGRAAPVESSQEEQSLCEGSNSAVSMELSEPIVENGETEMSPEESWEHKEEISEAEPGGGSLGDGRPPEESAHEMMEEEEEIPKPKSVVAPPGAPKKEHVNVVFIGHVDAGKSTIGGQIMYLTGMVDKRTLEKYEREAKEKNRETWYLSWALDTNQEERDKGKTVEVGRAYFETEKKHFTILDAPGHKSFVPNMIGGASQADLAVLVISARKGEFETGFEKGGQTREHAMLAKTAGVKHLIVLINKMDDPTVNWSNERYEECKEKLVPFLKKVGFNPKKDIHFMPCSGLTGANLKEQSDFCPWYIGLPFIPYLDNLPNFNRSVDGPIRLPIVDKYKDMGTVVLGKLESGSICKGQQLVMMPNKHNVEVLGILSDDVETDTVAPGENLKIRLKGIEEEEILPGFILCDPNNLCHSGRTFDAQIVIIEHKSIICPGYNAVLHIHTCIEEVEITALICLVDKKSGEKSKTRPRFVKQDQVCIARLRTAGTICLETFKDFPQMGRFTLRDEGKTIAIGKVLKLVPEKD
GSPT1, sequence (Q96SW2 whole entry): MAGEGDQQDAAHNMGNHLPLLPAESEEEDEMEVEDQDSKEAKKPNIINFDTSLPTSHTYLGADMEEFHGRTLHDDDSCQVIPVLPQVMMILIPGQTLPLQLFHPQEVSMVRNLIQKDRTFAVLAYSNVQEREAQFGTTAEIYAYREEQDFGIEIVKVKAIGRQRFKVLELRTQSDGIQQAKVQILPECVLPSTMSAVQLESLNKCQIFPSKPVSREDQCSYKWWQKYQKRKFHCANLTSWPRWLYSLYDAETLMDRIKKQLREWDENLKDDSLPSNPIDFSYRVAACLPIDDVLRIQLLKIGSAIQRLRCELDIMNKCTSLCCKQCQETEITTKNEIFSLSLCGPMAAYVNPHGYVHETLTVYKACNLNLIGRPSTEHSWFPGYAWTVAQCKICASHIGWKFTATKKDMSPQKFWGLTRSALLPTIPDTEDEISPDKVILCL
GSPT1, sequence (Q16531 whole entry partner): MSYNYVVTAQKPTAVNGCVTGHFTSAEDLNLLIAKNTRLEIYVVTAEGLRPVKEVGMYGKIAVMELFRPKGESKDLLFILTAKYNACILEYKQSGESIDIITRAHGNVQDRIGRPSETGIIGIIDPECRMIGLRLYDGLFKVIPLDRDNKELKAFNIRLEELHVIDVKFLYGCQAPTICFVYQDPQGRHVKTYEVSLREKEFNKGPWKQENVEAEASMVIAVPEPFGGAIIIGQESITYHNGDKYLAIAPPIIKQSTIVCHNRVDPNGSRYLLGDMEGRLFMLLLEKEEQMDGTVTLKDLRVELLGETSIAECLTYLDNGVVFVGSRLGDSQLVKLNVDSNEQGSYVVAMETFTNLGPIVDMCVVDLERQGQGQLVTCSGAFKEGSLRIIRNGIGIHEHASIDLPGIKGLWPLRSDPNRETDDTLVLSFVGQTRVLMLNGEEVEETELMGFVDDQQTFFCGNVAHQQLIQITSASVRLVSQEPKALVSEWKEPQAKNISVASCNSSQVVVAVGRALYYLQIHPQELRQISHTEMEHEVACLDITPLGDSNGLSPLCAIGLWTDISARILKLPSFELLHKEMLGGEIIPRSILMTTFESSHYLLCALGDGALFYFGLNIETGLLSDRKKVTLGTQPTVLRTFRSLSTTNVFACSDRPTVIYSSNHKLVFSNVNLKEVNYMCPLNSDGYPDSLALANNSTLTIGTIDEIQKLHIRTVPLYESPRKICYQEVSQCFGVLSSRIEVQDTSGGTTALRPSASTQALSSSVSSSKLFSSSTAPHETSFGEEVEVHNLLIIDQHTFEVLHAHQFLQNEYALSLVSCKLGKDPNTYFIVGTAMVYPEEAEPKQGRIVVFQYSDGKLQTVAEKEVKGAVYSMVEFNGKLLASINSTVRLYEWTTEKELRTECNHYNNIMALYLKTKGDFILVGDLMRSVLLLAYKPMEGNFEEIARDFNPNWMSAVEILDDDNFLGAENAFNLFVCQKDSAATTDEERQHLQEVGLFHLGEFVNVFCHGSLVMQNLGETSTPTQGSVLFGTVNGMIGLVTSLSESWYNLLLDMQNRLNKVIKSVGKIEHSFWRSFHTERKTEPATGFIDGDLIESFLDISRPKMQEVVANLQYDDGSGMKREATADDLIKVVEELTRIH
Procedure: The time course of the reduction in GSPT1 by Compound D also was studied for up to 48 hours. The progressive degradation of GSPT1 over the course of 1 to 20 hours was evident in the presence of all concentrations of Compound D studied from 3 to 300 nM in HNT-34, HL-60, and ML-2 cells, with little GSPT1 remaining by 20 hours at 100 or 300 nM Compound D in HNT-34 or HL-60 cells (FIG. 34 and FIG. 35C). Time-dependent reduction in GSPT1 was also observed in KG-1 and OCI-AML2 cells at 3 to 1000 nM Compound D, with little GSPT1 remaining in KG-1 cells at 100 to 300 nM at 24 hours or in OCI-AML2 cells at 300 and 1000 nM at 24 hours (FIG. 35D). Loss of GSPT1 occurred more slowly in Kasumi-1, AML-193, and […] cells. […] A positive association (r^2=0.50; […]

F36-P cells = assay: Apoptosis (caspase 3/7 activation), F36-P; format: cell-based, human
DDIT3 (CHOP) = DDIT3 (CHOP) mRNA, quantitative PCR, KG-1; format: cell-based, human; conditions: KG-1, 100 nM Compound D or greater
Procedure: Compound D regulates UPR stress RNAs, ATF3 and CHOP, and nonsense-mediated decay (NMD) RNAs, SRSF3 and SRSF6, in KG-1 cells in both dose- and time-dependent manners. KG-1 cells were plated in 10 cm^2 dishes and incubated overnight. The following day, KG-1 cells were treated with a 6-point dose response (0, 3, 10, 30, 100, 300 nM) of Compound D and incubated for 2, 4, 8, and 20 hours. Cells were removed from dishes and cell pellets were prepared for RNA isolation (Qiagen RNA isolation kit). Total RNA was quantitated using NanoDrop spectrophotometer and cDNA was reversely transcribed using 1 μg total RNA. Quantitative PCR was performed in replicates for each sample using primer sets for ATF3, CHOP, and both NMD and normal transcripts of SRSF3 and SRSF6. Data was doubly normalized to the 18S housekeeping gene and 2 hour DMSO control. Normalized RNA expression (y-axis) versus drug concentration in nM (x-axis) for each time point was plotted. SRSF3-1 NMD and SRSF6-1 NMD depict amplification of NMD transcript for SRSF3 and SRSF6, respectively. SRSF3-3 Normal and SRSF6-3 Normal depict amplification of normal transcript for SRSF3 and SRSF6 genes, respectively. […] FIGS. 29A-29F show effects of Compound D treatment on UPR and NMD pathways in KG-1 cells. […] Additionally, 100 nM Compound D or greater induced the mRNA levels of ATF3 and DDIT3 (CHOP) approximately 100-fold and 10-fold, respectively. […]

KG-1 AML cell cultures = assay: Induction of apoptosis (Annexin V assay), KG-1; format: cell-based; conditions: Homo sapiens, read-out: Induction of Apoptosis by Compound D (Annexin V assay) EC50
OCI-AML2 cells [2] = assay: Anti-proliferation 72-hour CTG assay, OCI-AML2; format: cell-based; conditions: Homo sapiens; OCI-AML2, 72-hour CTG assay; read-out: IC50 of the anti-proliferative effect
Procedure: as §1

HNT-34 cells = assay: Apoptosis (caspase 3/7 activation), HNT-34; format: cell-based, human; conditions: for EC50: Homo sapiens, read-out: Compound D-induced Apoptosis EC50
KG-1 cells = assay: Apoptosis (caspase 3/7 activation), KG-1; format: cell-based, human; conditions: for EC50: Homo sapiens, read-out: Compound D-induced Apoptosis EC50

## O=C1CCC(N2Cc3cc(CNC(=O)C(F)(F)c4ccc(Cl)cc4)ccc3C2=O)C(=O)N1 (stereo not drawn) [Compound D, 2-(4-chlorophenyl)-N-((2-(2,6-dioxopiperidin-3-yl)-1-oxoisoindolin-5-yl)methyl)-2,2-difluoroacetamide]
OCI-AML2 cells [1]; OCI-AML2, 48 hr
  EC50: 81 nM
OCI-AML2 cells [1]; OCI-AML2, 72 hr
  EC50: 41 nM
OCI-AML2 cells [1]; OCI-AML2, 96 hr
  EC50: 38 nM
OCI-AML2 cells [1]; OCI-AML2, 123 nM, 12 hr
  Average Percent Increase in Apoptosis at 123 nM Compound D, Apoptosis (12 hr): 0%
OCI-AML2 cells [1]; OCI-AML2, 123 nM, 24 hr
  Average Percent Increase in Apoptosis at 123 nM Compound D, Apoptosis (24 hr): 3%
OCI-AML2 cells [1]; OCI-AML2, 123 nM, 48 hr
  Average Percent Increase in Apoptosis at 123 nM Compound D, Apoptosis (48 hr): 33%
HL-60 cells; HL-60, 41 nM, 24 hour time-point
  average percent increase in apoptosis: 9%
HL-60 cells; HL-60, 123 nM, 12 hr
  Average Percent Increase in Apoptosis at 123 nM Compound D, Apoptosis (12 hr): 1%
HL-60 cells; HL-60, 123 nM, 24 hr
  Average Percent Increase in Apoptosis at 123 nM Compound D, Apoptosis (24 hr): 19%
HL-60 cells; HL-60, 123 nM, 48 hr
  Average Percent Increase in Apoptosis at 123 nM Compound D, Apoptosis (48 hr): 62%
HL-60 cells; HL-60, 24 hr
  EC50: 73 nM
HL-60 cells; HL-60, 48 hr
  EC50: 15 nM
HL-60 cells; HL-60, 72 hr
  EC50: 8 nM
MOLM-13 cells; Homo sapiens, MOLM-13, 72-hour CTG assay, read-out: IC50 of the anti-proliferative effect
  IC50: 75 nM
MOLM-13 cells; MOLM13 CRBN -/- cells, 48 hours
  anti-proliferative effect: completely abolished
MOLM-13 cells; MOLM13 parental cells, 0.001 μM to 10 μM, 48 hours
  cell proliferation (CellTiter-Glo): inhibited cell proliferation
ATF3
  time of induction of ATF3 protein: 12 h
GSPT1
  time at which GSPT1 degradation was evident: ≤ 2 h
F36-P cells; 12 hr
  Average Percent Increase in Apoptosis at 123 nM Compound D, Apoptosis (12 hr): 0%
F36-P cells; 24 hr
  Average Percent Increase in Apoptosis at 123 nM Compound D, Apoptosis (24 hr): 2%
F36-P cells; 48 hr
  Average Percent Increase in Apoptosis at 123 nM Compound D, Apoptosis (48 hr): 6%
DDIT3 (CHOP)
  induction of DDIT3 (CHOP) mRNA level: ~10 fold
KG-1 AML cell cultures; KG-1, Compound F 0 μM
  EC50: 20 nM
KG-1 AML cell cultures; KG-1, Compound F 0.1 μM
  EC50: 30 nM
KG-1 AML cell cultures; KG-1, Compound F 1.0 μM
  EC50: 100 nM
KG-1 AML cell cultures; KG-1, Compound F 10 μM
  EC50: 1000 nM
KG-1 AML cell cultures; KG-1, Compound F 100 μM
  EC50: 8000 nM
OCI-AML2 cells [2]
  IC50: 57 nM
HNT-34 cells; HNT-34, 123 nM, 12 hr
  Average Percent Increase in Apoptosis at 123 nM Compound D, Apoptosis (12 hr): 3%
HNT-34 cells; HNT-34, 123 nM, 24 hr
  Average Percent Increase in Apoptosis at 123 nM Compound D, Apoptosis (24 hr): 12%
HNT-34 cells; HNT-34, 123 nM, 48 hr
  Average Percent Increase in Apoptosis at 123 nM Compound D, Apoptosis (48 hr): 32%
HNT-34 cells; HNT-34, 24 hr
  EC50: 7 nM
HNT-34 cells; HNT-34, 48 hr
  EC50: 4 nM
HNT-34 cells; HNT-34, 96 hr
  EC50: 2 nM
KG-1 cells; KG-1, 12 hr
  EC50: 53 nM
KG-1 cells; KG-1, 48 hr
  EC50: 39 nM
KG-1 cells; KG-1, 72 hr
  EC50: 26 nM
KG-1 cells; KG-1, 96 hr
  EC50: 25 nM
KG-1 cells; KG-1, 41 nM, 24 hour time point
  average percent increase in apoptosis: 11%
KG-1 cells; KG-1, 123 nM, 12 hr
  Average Percent Increase in Apoptosis at 123 nM Compound D, Apoptosis (12 hr): 2%
KG-1 cells; KG-1, 123 nM, 24 hr
  Average Percent Increase in Apoptosis at 123 nM Compound D, Apoptosis (24 hr): 16%
KG-1 cells; KG-1, 123 nM, 48 hr
  Average Percent Increase in Apoptosis at 123 nM Compound D, Apoptosis (48 hr): 42%
